Measurements taken from patent publication US9677051B2, “Erythroid production” (The Common Services Agency, priority 2012, dated 2017).
Entries after “also recorded” stand apart in the source; their conditions may differ.

Legend:
[1] = tested on: human pluripotent stem cells (hPSC); assay: erythroid differentiation culture of hPSCs, overall cell amplification; format: cell-based; settings: for cell amplification, combination of GSK3β inhibitor and IBMX: GSK3 inhibitor combined with IBMX; for quality and quantity of erythrocytic cells produced: GSK3β inhibitor day 0 to day 3, used along with Wnt3a; for replacement of recombinant Wnt3A by GSK3β inhibitor: added during day 0 to day 3 of the differentiation protocol; for potency: concentration of GSK3β inhibitor: early stage of differentiation; for rate of cell amplification in the late stage of the method: SR1 1 μM at day 5, SC1 500 nM at day 14 and 250 nM at day 16; for overall amplification of differentiating erythropoietic cultures, side by side comparison: Table 1, addition of GSK3β inhibitors, IBMX or both; for expansion in cell number / yield of differentiated cells: prolonged treatment d0 to d5, iPSC or hESC
Method: (§1) The human pluripotent stem cells (hPSC) are maintained undifferentiated in Stempro medium (Life Technologies) on Cellstart (Life Technologies) and passaged approximately every 7 days, depending on their confluence, using the EZpassage tool (Life Technologies).
(§2) For differentiation, confluent hPSC are cut into squares with the EZpassage tool (Life Technologies) and plated at 500×10^3/well on Ultra low adherence six well plates (Corning) in 3 ml/well of Stemline II (Sigma) to allow them to form embryoid bodies (EBs).
(§3) On day 0 in order to induce differentiation, the following cytokines are added: Bone Morphogenic Protein 4 (BMP4) (10 ng/ml), Vascular Endothelium Growth Factor 165 (VEGF) (10 ng/ml), Wnt3A (and/or Wnt5A) (10 ng/ml), ActivinA (5 ng/ml) and Inhibitor VIII (2 μM). GSK3 Inhibitor VIII is a specific name for the Merck product (361549), it is also called AR-A014418 or N-(4-Methoxybenzyl)-N′-(5-nitro-1,3-thiazol-2-yl)urea
(§4) On day 2 of differentiation (48 hours old EBs), a new set of cytokines is added in 0.5 ml/well of Stemline II; BMP4 (20 ng/ml), VEGF (30 ng/ml), Wnt3A (and/or Wnt5A) (10 ng/ml), ActivinA (5 ng/ml), Inhibitor VIII (2 μM), Fibroblast Growth Factor α (FGFα) (10 ng/ml), Stem Cell Factor (SCF) (20 ng/ml) and β-Estradiol (0.4 ng/ml).
(§5) NB: Given cytokine concentrations are always the final concentrations of freshly added cytokines—e.g. when cells are fed rather than undergoing complete media change, we add 0.5 ml of 6× cytokines to 2.5 ml already in well to give final total volume of 3 ml with 1× cytokines.
On day 3 of differentiation the EBs are washed in PBS then dissociated using 1 ml/well TrypleSelect 10λ for 10 minutes at 37° C. After addition of 10 ml of PBS, cells are centrifuged for 3 minutes at 1200 rpm, the supernatant is discarded and the cells are resuspended in 3 ml fresh Stemline II and replated at 200×10^3/well of a regular six well tissue culture plate with the following cytokines: BMP4 (20 ng/ml), VEGF (30 ng/ml), FGFα (10 ng/ml), SCF (30 ng/ml), Insulin-like Growth Factor 2 (IGF2) (10 ng/ml), Thrombopoietin (TPO) (10 ng/ml), Heparin (5 ug/ml), Iso Butyl Methyl Xanthine (IBMX) 50 μM and β-Estradiol (0.4 ng/ml).
On day 5 of differentiation a fresh set of cytokines identical to day 3 is added in 0.5 ml/well of Stemline II such that final concentrations of fresh cytokines are those stated for day 3.
On day 7 of differentiation the cells are harvested, centrifuged 3 minutes at 1200 rpm and resuspended in fresh Stemline II medium supplemented with the same set of cytokines as day 3. If the number of cells is above 500×10^3, it is advisable to split the culture as any drastic depletion or major pH increase of the medium can have major repercussion on the differentiation efficiency.
From day 7 to day 10 of differentiation the cell density should be closely monitored in order to maintain the cell number under 10^6 per ml by adding fully supplemented media and splitting into additional wells if required.
On day 9 of differentiation a half dose of day 3 cytokines is added in 0.5 ml/well of Stemline II such that final concentrations of fresh cytokines are half those stated for day 3.
On day 10 of differentiation, the cells are centrifuged 3 minutes at 1200 rpm then re-plated in erythroid liquid culture conditions. i.e. the cells are plated at a density of 100×10^3 cells/well in 3 ml/well of Stemline II supplemented with the following cytokines: Hydrocortisone 10^−6M, SCF (50 ng/ml), Flt3-Ligand (Flt3L) (16.7 ng/ml), BMP4 (6.7 ng/ml), Interleukin 3 (IL3) (6.7 ng/ml), IL11 (6.7 ng/ml), IBMX (50 μM) and Erythropoietin (EPO) 1.3 U/ml.
From day 10 to day 17 (short protocol) or 21 (extended A phase protocol), the above cytokines are renewed every 2 days, added in 0.5 ml of Stemline II, such that final concentrations of fresh cytokines are those stated for day 10. […]

differentiating hPSCs = assay: morphology of differentiating cells, Rapid Romanovski staining of cytospin preparations; format: cell-based, human; settings: for sturdiness of cells, proneness to lysis: SR1 at day 5, SC1 at days 14 and 16
Method: At day 17 onward, the erythroid stage of the cells was determined assessment of morphology after Rapid Romanovski staining of cytospin preparations.

[2] = tested on: genes involved in erythropoiesis; assay: qRT-PCR (Taqman) of genes involved in erythropoiesis in differentiating hPSCs; format: cell-based, human; settings: for expression of globin genes and other markers of definitive hematopoiesis (HBA, HBG, HBB, Runx1, Gata2, HoxB4) and erythropoiesis genes (HOXA9, CD36, NFE2) / necessary reduction in pluripotent markers: hiPSC or hESC, Inhibitor VIII and IBMX; for key molecular markers, mRNA expression: iPSC, InhVIII+IBMX, day 0, 10, 17 and 24
From the text: At days 0, 10, 17 and 24 the expression of selected genes of interest by the differentiating cells was monitored by qRT-PCR (Taqman) The gene panel was selected to comprise genes known to be expressed at various stages of erythropoiesis in order to evaluate the degree of differentiation of the hPSCs.

hESC line H1 = assay: erythroid differentiation culture of hESC line H1; format: cell-based, human; settings: H1 ESC differentiation
Method: as §1, §2
as §3, with “N-(4-Methoxybenzyl)-N′-(5-nitro-1,3-thiazol-2-yl)urea […]” for “N-(4-Methoxybenzyl)-N′-(5-nitro-1,3-thiazol-2-yl)urea”
(§6) From day 7 to day 10 of differentiation the cell density should be closely monitored in order to maintain the cell number under 10^6 per ml by adding fully supplemented media and splitting into additional wells if required. […]

RC9 = assay: erythroid differentiation culture of hESC line RC9; format: cell-based, human; settings: RC9 cell line
Method: as §1, §2
as §3, with “N-(4-Methoxybenzyl)-N′-(5-nitro-1,3-thiazol-2-yl)urea […]” for “N-(4-Methoxybenzyl)-N′-(5-nitro-1,3-thiazol-2-yl)urea”
as §6

iPSC = assay: erythroid differentiation culture of iPSC; format: cell-based, human
Method: as §1, §2, §3, §4, §5
On day 3 of differentiation the EBs are washed in PBS then dissociated using 1 ml/well TrypleSelect 10λ for 10 minutes at 37° C. […]
as §6

globins = assay: HPLC analysis of globin protein expression profile of differentiated hPSCs; format: cell-based, human; settings: full differentiation process in presence of both GSK3β inhibitor and IBMX
Method: At day 24, 28 or onward the globin protein expression profile was analysed by High Pressure Liquid Chromatography to evaluate the level of switch from primitive to definitive hematopoiesis.

What does the source list for `Cc1c[nH]c(-c2cnc(NCCNc3ccc(C#N)cn3)nc2-c2ccc(Cl)cc2Cl)n1` [CHIR99021]?
cell amplification, combination of GSK3β inhibitor and IBMX [1]: synergistic; quality and quantity of erythrocytic cells produced [1]: marked improvement; replacement of recombinant Wnt3A by GSK3β inhibitor [1]: could not reproducibly replace Wnt3a; effect on hESC versus hiPSC lines ([1]; compared to Inhibitor VIII): stronger effect on hESC than hiPSC lines; potency: concentration of GSK3β inhibitor [1]: 200 nM

Which “sturdiness of cells, proneness to lysis” value (differentiating hPSCs) does the source give for `Cc1cc(Nc2ncc3c(n2)N(C)C(=O)N(c2cc(NC(=O)c4cccc(C(F)(F)F)c4)ccc2C)C3)n(C)n1` [SC1] here?
Its value is “sturdier and less prone to lysis; also recorded: more “sturdy” and less prone lysis”.

And the “rate of cell amplification in the late stage of the method” value [1]?
The value was “greater rate of cell amplification; also recorded: enhances or increases the rate of cell amplification”.

How did the “sturdiness of cells, proneness to lysis” value (differentiating hPSCs) turn out when `CC(C)n1cnc2c(NCCc3ccc(O)cc3)nc(-c3csc4ccccc34)nc21` [SR1] was run?
The value was “sturdier and less prone to lysis; also recorded: more “sturdy” and less prone to lysis”.

And the “rate of cell amplification in the late stage of the method” value [1]?
Its value is “greater rate of cell amplification; also recorded: enhances or increases the rate of cell amplification”.

Which “cell amplification, combination of GSK3β inhibitor and IBMX” value [1] does the source give for `O=C1Nc2cc(Br)ccc2/C1=C1/Nc2ccccc2/C1=N\O` [BiO] here?
Its value is “does not have this effect”.

How did the “expression of globin genes and other markers of definitive hematopoiesis (HBA, HBG, HBB, Runx1, Gata2, HoxB4) and erythropoiesis genes (HOXA9, CD36, NFE2)” value [2] turn out when `COc1ccc(CNC(=O)Nc2ncc([N+](=O)[O-])s2)cc1` [Inhibitor VIII, N-(4-methoxybenzyl)-N′-(5-nitro-1,3-thiazol-2-yl)urea] was run?
The value was “increase expression”.

What about the “necessary reduction in pluripotent markers” value [2] of the same molecule?
Its value is “do not affect”.

What about the “key molecular markers, mRNA expression” value [2] of the same molecule?
The value was “Increase key molecular markers”.

What about the “replacement of Activin A” value (hESC line H1) of the same molecule?
The value was “can replace Activin A”.

And the “cell amplification, combination of GSK3β inhibitor and IBMX” value [1]?
Its value is “synergistic”.

And the “quality and quantity of erythrocytic cells produced” value [1]?
Its value is “marked improvement”.

And the “overall amplification of differentiating erythropoietic cultures, side by side comparison” value [1]?
The value was “inconsistency. Results consistently show a positive effect of Inhibitor VIII and IBMX. The gain provided by a prolonged”.

And the “total fold amplification of erythroid differentiation culture” value ([1]; absence or presence of inhibitor VIII, hESC lines RC9 and H1, iPS line)?
The value was “increases cell numbers in multiple lines”.

And the “replacement of recombinant Wnt3A by GSK3β inhibitor” value [1]?
Its value is “could not reproducibly replace Wnt3a”.

What about the “potency: concentration of GSK3β inhibitor” value [1] of the same molecule?
Its value is 2000 nM.

What about the “expansion in cell number / yield of differentiated cells” value [1] of the same molecule?
Its value is “increases the yield of differentiated cells”.

What about the “expansion in cell number / yield of differentiated cells” value ([1]; listed as InhVIII) of the same molecule?
The value was “increases the expansion in cell number”.

What about the “replacement of Activin A” value (RC9) of the same molecule?
The value was “wasn't observed”.

What about the “replacement of Activin A” value (iPSC; iPSC G cell line) of the same molecule?
The value was “wasn't observed”.

With `CC(C)Cn1c(=O)n(C)c(=O)c2[nH]cnc21` [IBMX, 3-isobutyl-1-methylxanthine] as the molecule, how does the “expression of globin genes and other markers of definitive hematopoiesis (HBA, HBG, HBB, Runx1, Gata2, HoxB4) and erythropoiesis genes (HOXA9, CD36, NFE2)” value [2] read?
Its value is “increase expression”.

And the “necessary reduction in pluripotent markers” value [2]?
The value was “do not affect”.

And the “key molecular markers, mRNA expression” value [2]?
Its value is “Increase key molecular markers”.

What about the “cells morphology and maturation” value (differentiating hPSCs; addition of IBMX and GSK3β inhibitors, compared to the control culture conditions) of the same molecule?
The value was “did not have any negative effect”.

And the “morphological appearance of cells” value (differentiating hPSCs; combination of GSK3β inhibitor and IBMX)?
The value was “morphologically more intact and robust”.

And the “cell amplification, combination of GSK3β inhibitor and IBMX” value [1]?
The value was “synergetic effect on cell amplification”.

And the “expansion, cumulative fold amplification over time” value ([1]; H1 (hESC) or hiPSC, combinations of GSK3β inhibitors and IBMX)?
Its value is “further increases expansion”.

What about the “cell numbers in the culture” value ([1]; IBMX added to culture) of the same molecule?
Its value is “can increase cell numbers”.

What about the “overall amplification of differentiating erythropoietic cultures, side by side comparison” value [1] of the same molecule?
The value was “inconsistency. Results consistently show a positive effect of Inhibitor VIII and IBMX. The gain provided by a prolonged”.

What about the “stage of addition inducing maximum amplification” value ([1]; added to culture medium throughout day 3 and 17) of the same molecule?
Its value is “most effective”.

And the HPLC globin profile (globins)?
The HPLC globin profile was “almost similar to the cells of fetal origin”.

B1: Activin A: cytokine added at 5 ng/ml in the early stage of differentiation (protein, UniProt P08476 311-426, looked up)
Inhibin beta A chain: GLECDGKVNICCKKQFFVSFKDIGWNDWIIAPSGYHANYCEGECPSHIAGTSGSSLSFHSTVINHYRMRGHSPFANLKSCCVPTKLRPMSMLYYDDGQNIIKKDIQNMIVEECGCS
What does the source list for B1?
effect of an increased dose on differentiation ([1]; data not shown): doesn't have any beneficial effect; differentiation efficiency in the absence of Activin A (RC9): markedly hinders the differentiation efficiency; requirement for efficient differentiation (iPSC; iPSC): required for efficient differentiation; differentiation efficiency in the absence of Activin A (iPSC; iPSC G cell line): markedly hinders the differentiation efficiency
